Laboratory results reported in patent publication US9108944B2, “Androgen receptor modulators and uses thereof” (ARAGON PHARMACEUTICALS, INC., priority 2010, dated 2015).

Tests used:
[1] = biological target: T1, AR-VP16 (Homo sapiens, UniProt P10275); assay: AR-VP16 DNA Binding Assay, agonist mode (HepG2 cells); type: cell-based; conditions: Emax >20x DMSO control = agonist
T1 sequence (P10275 560-920 limits assumed): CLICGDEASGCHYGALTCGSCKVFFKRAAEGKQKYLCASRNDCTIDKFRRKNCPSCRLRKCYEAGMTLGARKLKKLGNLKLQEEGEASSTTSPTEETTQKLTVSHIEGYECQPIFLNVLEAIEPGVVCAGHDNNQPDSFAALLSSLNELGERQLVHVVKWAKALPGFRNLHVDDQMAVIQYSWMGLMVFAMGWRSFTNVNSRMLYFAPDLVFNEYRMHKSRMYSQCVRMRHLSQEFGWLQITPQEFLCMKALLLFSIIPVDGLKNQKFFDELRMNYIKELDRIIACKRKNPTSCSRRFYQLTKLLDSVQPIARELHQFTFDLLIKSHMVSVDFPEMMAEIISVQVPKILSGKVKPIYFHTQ

[2] = biological target: T1, AR-VP16; assay: AR-VP16 DNA Binding Assay, antagonist mode (HepG2 cells, 0.1 nM R1881); type: cell-based
Summary of the method: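 Transfected HepG2 cells expressing AR-VP16 received serially diluted compound in charcoal-stripped-serum RPMI the day after transfection, with 0.1 nM R1881 (final) added only for antagonist testing. After 48 h, cells were lysed for measurement.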

SMILES | ARVP16 DNA Binding Assay (Agonist mode): Agonist? [1] | IC50 [2] [nM]
Cc1ccc(N2C(=S)N(c3cnc(C#N)c4ccccc34)C(=O)C23CCC3)cc1 [Compound 65, 4-(8-Oxo-6-thioxo-5-(p-tolyl)-5,7-diazaspiro[3.4]octan-7-yl)isoquinoline-1-carbonitrile] | Yes (Agonist defined as a compound whose Emax in the ARVP16 DNA Binding Assay (Agonist mode) is >20x DMSO control) | < 1000
N#Cc1ncc(N2C(=O)C3(CCC3)N(c3cccc(Oc4ccccc4)c3)C2=S)cc1C(F)(F)F [Compound 24, 5-(8-Oxo-5-(3-phenoxyphenyl)-6-thioxo-5,7-diazaspiro[3.4]octan-7-yl)-3-(trifluoromethyl)picolinonitrile] | No (Agonist defined as a compound whose Emax in the ARVP16 DNA Binding Assay (Agonist mode) is >20x DMSO control) | > 1000
COc1ccc(N2C(=S)N(c3cnc(C#N)c(C)c3)C(=O)C23CCC3)cc1 [Compound 205, 5-(5-(4-Methoxyphenyl)-8-oxo-6-thioxo-5,7-diazaspiro[3.4]octan-7-yl)-3-methylpicolinonitrile] | No (Agonist defined as a compound whose Emax in the ARVP16 DNA Binding Assay (Agonist mode) is >20x DMSO control) | < 1000
Cc1cc(N2C(=O)C3(CCC3)N(c3ccc(C(N)=O)c(F)c3)C2=S)cnc1C#N [Compound 232, 4-(7-(6-Cyano-5-methylpyridin-3-yl)-8-oxo-6-thioxo-5,7-diazaspiro[3.4]octan-5-yl)-2-fluorobenzamide] | No (Agonist defined as a compound whose Emax in the ARVP16 DNA Binding Assay (Agonist mode) is >20x DMSO control) | < 1000
CCOC(=O)CCNC(=O)c1ccc(N2C(=S)N(c3cnc(C#N)c(C(F)(F)F)c3)C(=O)C23CCC3)cc1F [Compound 246, Ethyl 3-(4-(7-(6-cyano-5-(trifluoromethyl)pyridin-3-yl)-8-oxo-6-thioxo-5,7-diazaspiro[3.4]octan-5-yl)-2-fluorobenzamido)propanoate] | No (Agonist defined as a compound whose Emax in the ARVP16 DNA Binding Assay (Agonist mode) is >20x DMSO control) | > 1000
Cc1cc(N2C(=O)C3(CCC3)N(c3ccc(O)cc3)C2=S)cnc1C#N [Compound 77, 5-(5-(4-hydroxyphenyl)-8-oxo-6-thioxo-5,7-diazaspiro[3.4]octan-7-yl)-3-methylpicolinonitrile] | No (Agonist defined as a compound whose Emax in the ARVP16 DNA Binding Assay (Agonist mode) is >20x DMSO control) | > 1000
N#Cc1ncc(N2C(=O)C3(CCC3)N(c3ccc(C(=O)NCCN4CCCC4)c(F)c3)C2=S)cc1C(F)(F)F [Compound 234, 4-(7-(6-Cyano-5-(trifluoromethyl)pyridin-3-yl)-8-oxo-6-thioxo-5,7-diazaspiro[3.4]octan-5-yl)-2-fluoro-N-(2-(pyrrolidin-1-yl)ethyl)benzamide] | No (Agonist defined as a compound whose Emax in the ARVP16 DNA Binding Assay (Agonist mode) is >20x DMSO control) | > 1000
N#Cc1ncc(N2C(=O)C3(CCC3)N(c3ccc(OCCc4ccccc4)c(F)c3)C2=S)cc1C(F)(F)F [Compound 188, 5-(5-(3-Fluoro-4-phenethoxyphenyl)-8-oxo-6-thioxo-5,7-diazaspiro[3.4]octan-7-yl)-3-(trifluoromethyl)picolinonitrile] | No (Agonist defined as a compound whose Emax in the ARVP16 DNA Binding Assay (Agonist mode) is >20x DMSO control) | < 1000
N#Cc1ncc(N2C(=O)C3(CCC3)N(c3ccc(OCCCc4ccccc4)c(F)c3)C2=S)cc1C(F)(F)F [Compound 138, 5-(5-(3-Fluoro-4-(3-phenylpropoxy)phenyl)-8-oxo-6-thioxo-5,7-diazaspiro[3.4]octan-7-yl)-3-(trifluoromethyl)picolinonitrile] | No (Agonist defined as a compound whose Emax in the ARVP16 DNA Binding Assay (Agonist mode) is >20x DMSO control) | > 1000
COCCCNC(=O)c1ccc(N2C(=S)N(c3cnc(C#N)c(C(F)(F)F)c3)C(=O)C23CCC3)cc1F [Compound 249, 4-(7-(6-Cyano-5-(trifluoromethyl)pyridin-3-yl)-8-oxo-6-thioxo-5,7-diazaspiro[3.4]octan-5-yl)-2-fluoro-N-(3-methoxypropyl)benzamide] | No (Agonist defined as a compound whose Emax in the ARVP16 DNA Binding Assay (Agonist mode) is >20x DMSO control) | < 1000
N#Cc1ncc(N2C(=O)C3(CCC3)N(c3ccc(F)cc3O)C2=S)cc1C(F)(F)F [Compound 38, 5-(5-(4-Fluoro-2-hydroxyphenyl)-8-oxo-6-thioxo-5,7-diazaspiro[3.4]octan-7-yl)-3-(trifluoromethyl)picolinonitrile] | No (Agonist defined as a compound whose Emax in the ARVP16 DNA Binding Assay (Agonist mode) is >20x DMSO control) | > 1000
Cc1cc(N2C(=O)C3(CCC3)N(c3ccc(C(=O)Nc4cncc(F)c4)c(F)c3)C2=S)cnc1C#N [Compound 305, 4-(7-(6-Cyano-5-methylpyridin-3-yl)-8-oxo-6-thioxo-5,7-diazaspiro[3.4]octan-5-yl)-2-fluoro-N-(5-fluoropyridin-3-yl)benzamide] | No (Agonist defined as a compound whose Emax in the ARVP16 DNA Binding Assay (Agonist mode) is >20x DMSO control) | < 1000
CN1CCN(CCNC(=O)c2cc(N3C(=S)N(c4cnc(C#N)c(C(F)(F)F)c4)C(=O)C34CCC4)ccc2F)CC1 [Compound 254, 5-(7-(6-Cyano-5-(trifluoromethyl)pyridin-3-yl)-8-oxo-6-thioxo-5,7-diazaspiro[3.4]octan-5-yl)-2-fluoro-N-(2-(4-methylpiperazin-1-yl)ethyl)benzamide] | No (Agonist defined as a compound whose Emax in the ARVP16 DNA Binding Assay (Agonist mode) is >20x DMSO control) | > 1000
Cn1nccc1CCOc1ccc(N2C(=S)N(c3cnc(C#N)c(C(F)(F)F)c3)C(=O)C23CCC3)cc1F [Compound 126, 5-(5-(3-Fluoro-4-(2-(1-methyl-1H-pyrazol-5-yl)ethoxy)phenyl)-8-oxo-6-thioxo-5,7-diazaspiro[3.4]octan-7-yl)-3-(trifluoromethyl)picolinonitrile] | Yes (Agonist defined as a compound whose Emax in the ARVP16 DNA Binding Assay (Agonist mode) is >20x DMSO control) | < 1000
N#Cc1ncc(N2C(=O)C3(CCC3)N(c3ccc(C(=O)NCCCO)c(F)c3)C2=S)cc1C(F)(F)F [Compound 306, 4-(7-(6-cyano-5-(trifluoromethyl)pyridin-3-yl)-8-oxo-6-thioxo-5,7-diazaspiro[3.4]octan-5-yl)-2-fluoro-N-(3-hydroxypropyl)benzamide] | No (Agonist defined as a compound whose Emax in the ARVP16 DNA Binding Assay (Agonist mode) is >20x DMSO control) | < 1000
Cc1cc(N2C(=O)C3(CCC3)N(c3ccc4c(c3)CNC4=O)C2=S)cnc1C#N [Compound 111, 3-Methyl-5-(8-oxo-5-(1-oxoisoindolin-5-yl)-6-thioxo-5,7-diazaspiro[3.4]octan-7-yl)picolinonitrile] | No (Agonist defined as a compound whose Emax in the ARVP16 DNA Binding Assay (Agonist mode) is >20x DMSO control) | > 1000
CN1CCN(CCCNC(=O)c2ccc(N3C(=S)N(c4cnc(C#N)c(C(F)(F)F)c4)C(=O)C34CCC4)cc2F)CC1 [Compound 269, 4-(7-(6-Cyano-5-(trifluoromethyl)pyridin-3-yl)-8-oxo-6-thioxo-5,7-diazaspiro[3.4]octan-5-yl)-2-fluoro-N-(3-(4-methylpiperazin-1-yl)propyl)benzamide] | No (Agonist defined as a compound whose Emax in the ARVP16 DNA Binding Assay (Agonist mode) is >20x DMSO control) | < 1000
N#Cc1ncc(N2C(=O)C3(CCC3)N(c3ccc(F)c(OCCCc4ccccc4)c3)C2=S)cc1C(F)(F)F [Compound 163, 5-(5-(4-Fluoro-3-(3-phenylpropoxy)phenyl)-8-oxo-6-thioxo-5,7-diazaspiro[3.4]octan-7-yl)-3-(trifluoromethyl)picolinonitrile] | No (Agonist defined as a compound whose Emax in the ARVP16 DNA Binding Assay (Agonist mode) is >20x DMSO control) | > 1000
N#Cc1ncc(N2C(=O)C3(CCC3)N(c3ccc(C(=O)Nc4ccccn4)c(F)c3)C2=S)cc1C(F)(F)F [Compound 261, 4-(7-(6-Cyano-5-(trifluoromethyl)pyridin-3-yl)-8-oxo-6-thioxo-5,7-diazaspiro[3.4]octan-5-yl)-2-fluoro-N-(pyridin-2-yl)benzamide] | No (Agonist defined as a compound whose Emax in the ARVP16 DNA Binding Assay (Agonist mode) is >20x DMSO control) | < 1000
N#Cc1ncc(N2C(=O)C3(CCC3)N(c3ccccc3-c3ccccc3)C2=S)cc1C(F)(F)F [Compound 15, 5-(5-([1,1′-Biphenyl]-2-yl)-8-oxo-6-thioxo-5,7-diazaspiro[3.4]octan-7-yl)-3-(trifluoromethyl)picolinonitrile] | No (Agonist defined as a compound whose Emax in the ARVP16 DNA Binding Assay (Agonist mode) is >20x DMSO control) | > 1000
